Structures are written as SMILES.

Common to all, as to format: cell-based, human
Assay [1] relates to HBG mRNA. Put plainly: HBG mRNA in burst forming unit erythroid (BFU-E) colonies. The settings on record: 14 days. How it is done: Burst forming unit erythroid (BFU-E) assays were performed by ReachBio Research Labs (Seattle, WA). On the day of the experiment, normal human bone marrow mononuclear cells (Lonza) were thawed rapidly, diluted in 10 mL of IMDM containing 10% fetal bovine serum and washed by centrifugation. The supernatant was discarded and the cell pellet resuspended in a known volume of IMDM + 10% FBS. ACY-957 or vehicle was added to a semi-solid methylcellulose-based media formulation containing IL3 (10 ng/mL), CSF2 (10 ng/mL), KITLG (50 ng/mL), and EPO (3 U/mL) and plated in triplicate. BFU-E assays were initiated at 2.5 x 10^4 cells per culture. Following 14–16 days in culture, BFU-E colonies were isolated and RNA purified using the RNeasy Micro Kit (Qiagen).
(§1) Globin mRNA was detected using quantitative real time PCR (QPCR). Total RNA was isolated using RNeasy Micro Kit (Qiagen) with on-column DNase digestion, converted into cDNA using the High Capacity RNA-to-cDNA Kit (Life Technologies), diluted 5-fold with water, and 1 μL used as a template for QPCR. The percent of each β-like globin transcript was determined using the absolute standard curve method. Briefly, DNA corresponding to the full length transcript for each globin isoform was cloned into […] plasmid (GenScript, Piscataway NJ). Each plasmid was validated against each QPCR probe to ensure specificity. Plasmids were pooled at equal molar concentration and a dilution series spanning 8-logs was utilized as the standard curve. Throughout this work, ‘HBG mRNA (%)’ and ‘percent HBG mRNA’ refers to the abundance of HBG mRNA expressed relative to the sum of the abundances of all β-like globin transcripts, i.e. [HBG/(HBB+HBD+HBG+HBE)]*100. In cases where the transcript of interest was compared against the housekeeping gene ACTB, the comparative Ct ([…]) method was utilized. […]

Assay [2] deals with gene expression in BM cells. Put plainly: Gene expression profiling (Affymetrix GeneChip) of erythroid progenitors. As for the experimental part: BM cells were cultured in CS1 expansion media for 7 days, and then shifted to CS1 differentiation media containing vehicle or 1 μM ACY-957 for 5 days. Total RNA was isolated from cells at day 5 of differentiation using RNeasy Micro Kit with on-column DNase digestion (Qiagen). This experiment was performed in triplicate using cells from three independent donors on separate days to obtain vehicle treated (n = 3) and ACY-957 treated (n = 3) samples for GeneChip analysis. GeneChip sample preparation, hybridization, and data acquisition was performed by the Covance Genomics Laboratory (Seattle, WA) using Affymetrix GeneChip PrimeView™ Human Gene Expression Array according to manufacturer’s protocol. […] For the analysis of HDAC1 or HDAC2 knockdown in erythroblasts, raw gene expression data was downloaded from NCBI GEO website, series GSE22366 [21].
Data analysis was performed using BRB-ArrayTools. GSE60791 and GSE22366 data series were imported and analyzed independently. Raw data CEL files were processed with the robust multi-chip average (RMA) algorithm. Fold changes were derived from the geometric mean of intensity values in each treatment class. In the case of GSE60791, P-values were generated between ACY-957 and vehicle treated samples using a paired t test with random variance model applied. In the case of GSE22366, P-values were generated between luciferase control and HDAC1 or HDAC2 knockdown samples using a two-sample t test with random variance model applied.
Duplicate gene symbols were removed by selecting the probe set with the lowest P-value. Next, these 4 gene sets were appended to the Molecular Signatures Database collection of Chemical and Genetic Perturbations. This database contained approximately 2777 gene sets, each containing at least 15 genes and no more than 10000 genes. Finally, log base 2 mRNA data from ACY-957 or vehicle treated cells was loaded into the publically available GSEA software from the Broad Institute and queried against the database of gene sets described above. ACY-957 phenotype was compared against vehicle phenotype by first collapsing the data set to gene symbols based on maximum probe signal and then using a weighted, signal-to-noise metric for ranking genes. Gene set permutations were performed to generate nominal P-values for each gene set.
We interrogated the mechanism through which HDAC1/2 inhibition induces HBG by performing gene expression profiling on ACY-957 or vehicle treated cells in CS1. Because HDAC inhibition prevented cells from fully upregulating GYPA (Fig 4) we isolated RNA at day 5 of differentiation, a time point prior to the observed differentiation block.

Assay [3] concerns GATA2, GATA1, KLF1 mRNA. Kind of assay: Gene expression of candidate HBG modulators by QPCR in CS1. The settings on record: CS1, 1 μM. As for the experimental part: as §1, with “utilized. Probes used for QPCR: HBB (Hs00747223_g1), HBD (Hs00426283_m1), HBG (Hs00361131_g1, detects both HBG1 and HBG2), HBE (Hs00362215_g1), GATA1 (Hs01085823_m1), GATA2 (Hs00231119_m1), KLF1 (Hs00610592_m1), MYB (Hs00920556_m1), SOX6 (Hs00264525_m1), BCL11A (Hs01093197_m1), and ACTB (Hs99999903_m1).” for “utilized.”

Setting [4] is: treatment versus control, 1 μM, day 5.

`Nc1ccc(-c2cccs2)cc1NC(=O)c1ccc2nc(N3CCNCC3)ccc2c1` [ACY-957]: the “each β-like globin transcript relative to ACTB” value in assay [1] was “increased HBE and HBG mRNA and decreased HBD and HBB mRNA”. Further, the “percent HBG” value in assay [1] (1 μM) came to 48%. Besides, the “percent HBG” value in assay [1] (2 μM) was determined as 82%. Besides, in assay [2] (GeneChip, 1 μM, day 5), the BCL11A down-regulated is given as 1.3 fold; the GATA2 up-regulated is on record as 2.8 fold; the SOX6 down-regulated is 2.5 fold; the “expression of HBG repressors MYB and KLF1” value is “unaffected”. Also, the “GATA2 induced (abstract)” value in assay [2] (gene expression profiling of erythroid progenitors) is on record as “greater than 3 fold”. For the same compound, in assay [2] (setting [4]), the “BCL11A Ratio, candidate gene expression by GeneChip” value was 0.77; the “GATA1 Ratio, candidate gene expression by GeneChip” value came to 1.0; the “GATA2 Ratio, candidate gene expression by GeneChip” value was determined as 2.8; the “KLF1 Ratio, candidate gene expression by GeneChip” value came to 0.87. Moreover, in assay [2] (setting [4]), the “MYB Ratio, candidate gene expression by GeneChip” value was 1.1 and the “SOX6 Ratio, candidate gene expression by GeneChip” value is recorded as 0.41. The “GATA1 and KLF1 mRNA” value in assay [3] (4 days) was “unaffected”. Besides, the “GATA2 mRNA increase relative to control cells” value in assay [3] (day 4) worked out at 3.3 fold.

These data come from PMC4830539, “Chemical Inhibition of Histone Deacetylases 1 and 2 Induces Fetal Hemoglobin through Activation of GATA2” (PLoS ONE, 2016).
